Test results: a compilation of properties of binary mixtures (doi:10.1039/c5cp02799c)

Test: xn = mol fraction of the nth substance listed
Settings: 101.3 kPa

CCCCC[P+](CC)(CC)CC.O=S(=O)([N-]S(=O)(=O)C(F)(F)F)C(F)(F)F + O=S(=O)([N-]S(=O)(=O)C(F)(F)F)C(F)(F)F.[Li+]
Settings | electrical conductivity [S/m] | viscosity [mPa·s]
298.2 K, x2 = 0.25 | 0.062 | –
298.2 K, x2 = 0.39 | 0.016 | 1300
298.3 K, x2 = 0.25 | – | 310
300.2 K, x2 = 0.25 | – | 270
300.2 K, x2 = 0.39 | 0.019 | –
300.3 K, x2 = 0.25 | 0.075 | –
306.2 K, x2 = 0.25 | 0.1 | –
306.2 K, x2 = 0.39 | 0.028 | 670
306.3 K, x2 = 0.25 | – | 180
312.2 K, x2 = 0.39 | 0.041 | –
312.3 K, x2 = 0.25 | 0.14 | 130
312.3 K, x2 = 0.39 | – | 440
318.2 K, x2 = 0.39 | 0.058 | 290
318.3 K, x2 = 0.25 | 0.18 | 95
324.3 K, x2 = 0.25 | 0.23 | 71
330.3 K, x2 = 0.25 | 0.29 | –
330.4 K, x2 = 0.25 | – | 54
336.2 K, x2 = 0.39 | 0.15 | 110
341.2 K, x2 = 0.39 | – | 85
348.2 K, x2 = 0.39 | 0.24 | 63
355.2 K, x2 = 0.39 | – | 47
355.3 K, x2 = 0.25 | – | 21
361.3 K, x2 = 0.25 | 0.73 | –
361.4 K, x2 = 0.25 | – | 18
374.2 K, x2 = 0.25 | – | 12
374.2 K, x2 = 0.39 | – | 24

CC[P+](CC)(CC)CCOC.O=S(=O)([N-]S(=O)(=O)C(F)(F)F)C(F)(F)F + O=S(=O)([N-]S(=O)(=O)C(F)(F)F)C(F)(F)F.[Li+]
Settings | electrical conductivity [S/m] | viscosity [mPa·s]
298.2 K, x2 = 0.39 | 0.51 | 620
300.1 K, x2 = 0.39 | – | 540
300.2 K, x2 = 0.25 | – | 150
300.2 K, x2 = 0.39 | 0.55 | –
300.3 K, x2 = 0.25 | 1.1 | –
306.1 K, x2 = 0.39 | – | 360
306.2 K, x2 = 0.25 | 1.2 | –
306.2 K, x2 = 0.39 | 0.68 | –
306.3 K, x2 = 0.25 | – | 110
312.2 K, x2 = 0.25 | – | 81
312.3 K, x2 = 0.25 | 1.3 | –
312.3 K, x2 = 0.39 | – | 250
318.1 K, x2 = 0.39 | – | 180
318.2 K, x2 = 0.39 | 0.91 | –
318.3 K, x2 = 0.25 | 1.4 | 61
324.2 K, x2 = 0.25 | – | 47
324.2 K, x2 = 0.39 | 1 | 130
324.3 K, x2 = 0.25 | 1.4 | –
330.2 K, x2 = 0.39 | 1.1 | 95
330.3 K, x2 = 0.25 | 1.5 | 37
336.2 K, x2 = 0.39 | 1.2 | 72
336.3 K, x2 = 0.25 | 1.6 | 30
341.1 K, x2 = 0.39 | – | 58
341.3 K, x2 = 0.25 | – | 25
348.2 K, x2 = 0.25 | 1.7 | 20
348.2 K, x2 = 0.39 | 1.3 | 45
355.2 K, x2 = 0.39 | – | 34
361.2 K, x2 = 0.39 | – | 28
361.3 K, x2 = 0.25 | 1.8 | 14
374.2 K, x2 = 0.39 | – | 19
374.3 K, x2 = 0.25 | – | 10
